# In the supplement of paper PMC10307832:
# How the values were obtained:
# Assay in all cases: relative viability (nuclei count vs DMSO), 5 days (fraction); higher = more cells survive
# GW-2580 + Trametinib = compound: COC1=CC=C(C=C1)COC2=C(C=C(C=C2)CC3=CN=C(N=C3N)N)OC [GW-2580] + CC(=O)Nc1cccc(-n2c(=O)n(C3CC3)c(=O)c3c(Nc4ccc(I)cc4F)n(C)c(=O)c(C)c32)c1 [Trametinib] (partner 0.02 µM)
# Procedure, shortened: (§1)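 Relative viability was taken as the ratio of nuclei in treated wells to nuclei in vehicle wells. Lung cancer cell lines in 1536-well plates received compounds by pin tool one day after seeding, either one drug alone or a fixed anchor-drug dose plus five library-drug doses (not always all listed) in √10 steps. Nuclei were counted on 4× images after 5 days of treatment, and values are medians of duplicate plates.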
# Fedratinib + AZD7762 = compound: Cc1cnc(Nc2ccc(OCCN3CCCC3)cc2)nc1Nc1cccc(S(=O)(=O)NC(C)(C)C)c1 [Fedratinib] + NC(=O)Nc1cc(-c2cccc(F)c2)sc1C(=O)N[C@H]1CCCNC1 [AZD7762] (partner 0.2 µM)
# Procedure, shortened: as §1
# Fedratinib = compound: Cc1cnc(Nc2ccc(OCCN3CCCC3)cc2)nc1Nc1cccc(S(=O)(=O)NC(C)(C)C)c1 [Fedratinib]
# Procedure, shortened: (§2)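 Lung cancer cell lines in 1536-well plates were kept overnight at 37 °C, then pinned with five library-drug doses (not always all listed) spaced by √10 on vehicle-anchored plates. After 5 days without medium change, cells were fixed, permeabilised and Hoechst-stained in one step, imaged at 4×, and nuclei were counted with MetaXpress. Viability is treated-well nuclei divided by vehicle-well nuclei, taken as the median over plates. Plates passed only with control CV below 25% and at least one doubling.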
# GW-2580 = compound: COC1=CC=C(C=C1)COC2=C(C=C(C=C2)CC3=CN=C(N=C3N)N)OC [GW-2580]
# Procedure, shortened: as §2
# Fedratinib + Navitoclax = compound: Cc1cnc(Nc2ccc(OCCN3CCCC3)cc2)nc1Nc1cccc(S(=O)(=O)NC(C)(C)C)c1 [Fedratinib] + CC1(C)CCC(c2ccc(Cl)cc2)=C(CN2CCN(c3ccc(C(=O)NS(=O)(=O)c4ccc(N[C@H](CCN5CCOCC5)CSc5ccccc5)c(S(=O)(=O)C(F)(F)F)c4)cc3)CC2)C1 [Navitoclax] (partner 0.5 µM)
# Procedure, shortened: as §1
# Fedratinib + Bortezomib = compound: Cc1cnc(Nc2ccc(OCCN3CCCC3)cc2)nc1Nc1cccc(S(=O)(=O)NC(C)(C)C)c1 [Fedratinib] + CC(C)C[C@H](NC(=O)[C@H](Cc1ccccc1)NC(=O)c1cnccn1)B(O)O [Bortezomib] (partner 0.002 µM)
# Procedure, shortened: as §1
Cell Line,relative viability (GW-2580 + Trametinib; first compound 0.08 µM),relative viability (GW-2580 + Trametinib; first compound 2.53 µM),relative viability (GW-2580 + Trametinib; first compound 8 µM),relative viability (Fedratinib + AZD7762; first compound 0.1 µM),relative viability (Fedratinib + AZD7762; first compound 0.3162 µM),relative viability (Fedratinib + AZD7762; first compound 1 µM),relative viability (Fedratinib; 0.1 µM),relative viability (Fedratinib; 0.3162 µM),relative viability (Fedratinib; 1 µM),relative viability (GW-2580; 0.08 µM),relative viability (GW-2580; 2.53 µM),relative viability (GW-2580; 8 µM),relative viability (Fedratinib + Navitoclax; first compound 0.1 µM),relative viability (Fedratinib + Navitoclax; first compound 0.3162 µM),relative viability (Fedratinib + Navitoclax; first compound 1 µM),relative viability (GW-2580 + Trametinib; first compound 0.8 µM),relative viability (GW-2580; 0.8 µM),relative viability (Fedratinib + Bortezomib; first compound 0.1 µM),relative viability (Fedratinib + Bortezomib; first compound 0.3162 µM),relative viability (Fedratinib + Bortezomib; first compound 1 µM)
NCI-H1648,0.416,0.405,0.439,0.818,0.558,0.548,0.889,0.901,0.694,0.82,0.929,0.888,–,–,–,–,–,–,–,–
SK-MES-1,0.585,0.522,0.503,–,–,–,0.977,1.02,0.911,1.1,0.96,0.984,1.39,1.19,1.07,0.491,1.08,–,–,–
HCC-366,0.344,0.295,0.412,0.326,0.234,0.188,0.997,1.02,0.962,0.997,1.11,1.07,1.22,1.04,1.07,0.401,1.06,1.22,1,0.174
201T,0.76,0.754,0.748,0.753,0.531,0.593,0.963,1,0.918,0.974,1.06,0.959,1.16,1.18,1.21,0.753,1.13,1.01,1.07,1.08
NCI-H2023,0.523,0.541,0.577,–,–,–,1.02,0.962,0.754,1.12,0.933,1.06,1.04,0.945,0.946,0.639,1.07,1.08,0.95,0.0957
NCI-H520,0.736,0.608,0.539,–,–,–,0.93,0.997,0.9,1.09,0.894,1.12,1.13,1.07,0.983,0.606,1.13,0.524,0.711,0.173
NCI-H1703,–,–,–,0.126,0.138,0.121,0.518,0.794,0.686,0.855,1.02,0.919,0.482,0.955,0.498,–,0.991,0.244,0.341,0.24
Calu-6,–,–,–,–,–,–,1.03,1.04,0.971,1.12,0.96,1.04,0.828,0.795,0.727,–,1.1,1.05,0.981,0.771
SK-LU-1,0.498,0.375,0.518,–,–,–,1.06,0.906,0.868,1.09,0.826,1.14,–,0.917,0.611,0.437,1.12,1.33,1.23,0.967
LK-2,0.918,0.686,0.904,0.286,0.393,0.293,1.09,1.03,0.734,1.18,0.742,1.02,0.831,1.34,0.777,0.933,0.988,–,–,–
NCI-H1944,0.463,0.336,0.377,0.475,0.594,0.458,0.965,1.01,0.909,1,0.972,0.886,1.04,1.07,1.03,0.387,0.999,–,–,–
SW 1573,0.535,0.532,0.614,–,–,–,0.987,0.998,0.897,1.05,0.868,0.946,0.984,1,0.927,0.598,0.994,1.05,0.911,0.983
NCI-H2009,0.284,0.266,0.273,–,–,–,0.956,1.08,0.987,1.06,0.967,0.888,1.13,1.19,1.1,0.262,0.996,0.99,1.11,0.131
COR-L23,0.684,0.549,0.67,–,–,–,0.958,1.04,1.03,1.15,1.03,0.932,0.936,1.06,0.899,0.632,1.12,1.14,0.975,0.938
NCI-H1299,–,–,–,–,–,–,1.01,1.03,1,1.08,1,0.937,1.04,1.06,1.01,–,1.03,1.05,1.02,1.01
LCLC-103H,0.725,0.64,0.637,0.857,0.72,0.647,0.952,1,0.932,0.999,0.977,0.927,–,–,–,0.716,0.909,0.801,0.997,0.897
